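48-hour exposure; five concentrations; linearly interpolated endpoints. GI50 marks 50% less growth. TGI is the concentration that stops growth completely.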
Columns and labels:
Assay in all cases: DTP human tumour cell line panel, 48 h
A498 renal = system: A498 renal
A549 NSCLC = system: A549 NSCLC
ACHN renal = system: ACHN renal
BT-549 breast = system: BT-549 breast
CCRF-CEM leukemia = system: CCRF-CEM leukemia
COLO 205 colon = system: COLO 205 colon
HCT-116 colon = system: HCT-116 colon
MCF7 breast = system: MCF7 breast
NCI-H522 lung = system: NCI-H522 lung
SF-295 CNS = system: SF-295 CNS
SNB-19 CNS = system: SNB-19 CNS
SR leukemia = system: SR leukemia

| Compound | TGI (A498 renal) [µM] | TGI (A549 NSCLC) [µM] | TGI (ACHN renal) [µM] | TGI (BT-549 breast) [µM] | TGI (CCRF-CEM leukemia) [µM] | TGI (COLO 205 colon) [µM] | TGI (HCT-116 colon) [µM] | TGI (MCF7 breast) [µM] | TGI (NCI-H522 lung) [µM] | TGI (SF-295 CNS) [µM] | TGI (SNB-19 CNS) [µM] | TGI (SR leukemia) [µM] | GI50 (A498 renal) [µM] | GI50 (ACHN renal) [µM] | GI50 (BT-549 breast) [µM] | GI50 (CCRF-CEM leukemia) [µM] | GI50 (MCF7 breast) [µM] | GI50 (SF-295 CNS) [µM] | GI50 (SR leukemia) [µM] |
| --- | --- | --- | --- | --- | --- | --- | --- | --- | --- | --- | --- | --- | --- | --- | --- | --- | --- | --- | --- |
| C1CNCCN2CCCNCCN(C1)CC2 | > 100 | > 100 | > 100 | > 100 | 37.9 | > 100 | > 100 | > 100 | > 100 | > 100 | > 100 | > 100 | – | – | – | – | – | – | – |
| COc1ccc2c(c1)/C(=C(\C(Cl)=C(Cl)Cl)[N+](=O)[O-])N2 | > 100 | > 100 | > 100 | > 100 | > 100 | > 100 | > 100 | > 100 | 87 | > 100 | > 100 | 49.3 | – | – | – | – | – | – | – |
| CN1CN(c2ccccc2)C2(CCNCC2)C1=O | > 100 | > 100 | > 100 | > 100 | > 100 | > 100 | > 100 | > 100 | > 100 | > 100 | > 100 | > 100 | – | – | – | – | – | – | – |
| COc1cc2c(cc1C)NC(=O)/C2=C/c1c(Cl)[nH]c2cc(C)c(OC)cc12 | 23.1 | 28.7 | 18.4 | 9.92 | 5.16 | 12.7 | 18.1 | 20.4 | 19.8 | 6.18 | 20.4 | 12 | – | – | – | – | – | – | – |
| CN(Cc1cnc2nc(N)nc(N)c2n1)c1ccc(C(=O)NC(CCS(=O)(=O)O)C(=O)O)cc1 (stereo not drawn) | > 100 | > 100 | > 100 | > 100 | 0.739 | > 100 | – | > 100 | > 100 | > 100 | > 100 | > 100 | – | – | – | – | – | – | – |
| CC(=O)OCC1C(C(C)OC(C)=O)CCC2C1CCC1(C)C(OC(C)=O)CCC21 (stereo not drawn) | 41.4 | 39.4 | 28.3 | 24.5 | 42.6 | – | 29.2 | 33.8 | 37.5 | 41.4 | 42.5 | > 100 | – | – | – | – | – | – | – |
| C/C(Cl)=N\OC(=O)Nc1ccc([N+](=O)[O-])cc1 | 30.5 | 47.5 | 9.2 | 66.7 | > 100 | 5.85 | 22.2 | 5.73 | 3.75 | 31.8 | 33.1 | 74.2 | – | – | – | – | – | – | – |
| CCCCC1Cc2cc(O)ccc2-c2n1c1cc(O)ccc1[n+]2C (stereo not drawn) (tested in a mixture with another compound) | > 100 | > 100 | 98.7 | > 100 | > 100 | 44.2 | > 100 | > 72.7 | > 47.4 | > 60.1 | > 39.8 | > 100 | – | – | – | – | – | – | – |
| CCOC(=O)c1ccc(N=C2SC(=S)N(c3ccc(F)cc3)C2=Nc2ccc(C(=O)OCC)cc2)cc1 | > 100 | > 84.9 | 29.4 | 40.6 | > 57.6 | 40.3 | 41.6 | 42.2 | 19.1 | > 100 | > 100 | 29.3 | – | – | – | – | – | – | – |
| CCN(CC)CC(O)c1ccc2ccc3ccccc3c2c1 (stereo not drawn) | 26.3 | 31.4 | 27.3 | 30.5 | 45.3 | 29.9 | 29.5 | 28.2 | 31.9 | 28.9 | 29.5 | 24.8 | – | – | – | – | – | – | – |
| CCN(CC)CCn1ncc2ccc3c(c(=O)c4cccnc4n3CCN(CC)CC)c21 | 2.24 | > 10 | > 10 | 5.11 | 1.82 | 1.46 | > 5.81 | 4.62 | 2.35 | > 9.52 | 9.97 | 1.3 | – | – | – | – | – | – | – |
| Cc1csc2c(P(=O)(OC(C)C)OC(C)C)c(-c3ccccc3)cn12 | 34.1 | 32.4 | 28.3 | 36 | 37.2 | 37.8 | 27.4 | 34.3 | 30.7 | 31.1 | 28.4 | 36.7 | – | – | – | – | – | – | – |
| NS(=O)(=O)c1nnc(NC(=O)CCC(=O)O)s1 | > 100 | > 100 | > 100 | > 100 | – | > 100 | > 100 | > 100 | > 100 | > 100 | > 100 | > 100 | – | – | – | – | – | – | – |
| COc1ccc2c(c1)/C(=C(\C(Cl)=C(\Cl)N1CCCCC1)[N+](=O)[O-])N2 | > 100 | > 100 | > 100 | > 100 | > 100 | > 100 | > 100 | > 100 | > 100 | > 100 | > 100 | > 100 | – | – | – | – | – | – | – |
| C=C1c2nc3ccccc3n2C=C(c2ccc(Cl)cc2)N1c1ccc(OCCN2CCOCC2)cc1 | > 100 | > 100 | > 100 | > 100 | – | 98.6 | > 100 | > 100 | – | – | > 100 | 42 | – | – | – | – | – | – | – |
| CC1=C(C)C(=O)OC(C(C)(O)C2(O)CCC3(O)C4CC(Cl)C5(O)C(O)C=CC(=O)C5(C)C4CCC32C)C1 (stereo not drawn) | > 100 | > 100 | > 100 | > 100 | 53.4 | 42.8 | > 100 | > 100 | > 100 | > 100 | > 100 | 37.1 | – | – | – | – | – | – | – |
| CCN(CC)CCN1C(=O)c2cccc3c(-c4ccc5c(c4)ncn5C4CCCCC4)ccc(c23)C1=O | 3.22 | – | 2.96 | 2.3 | 11.6 | – | – | 4.65 | – | 2.69 | – | 2.06 | 1.65 | 1.16 | 0.922 | 1.43 | 1.74 | 1.18 | 0.414 |
| COC(=O)C12CCC(C(=O)OC)(Cc3c(c4ccccc4n3S(=O)(=O)c3ccccc3)C1)C2=O (stereo not drawn) | > 100 | > 100 | > 100 | > 100 | > 100 | > 100 | > 26.5 | > 100 | 97.1 | > 100 | > 100 | > 100 | – | – | – | – | – | – | – |
| CC1=NN(c2nc(N)nc(CS(C)(=O)=O)n2)C(C)(C)C1 | > 100 | – | > 100 | > 100 | > 100 | > 100 | > 100 | > 100 | – | > 100 | > 100 | > 100 | – | – | – | – | – | – | – |
| COC(=O)N1CC[C@@H]2CCC=C(c3cccc4c3OCO4)[C@@H]21 | > 100 | > 100 | > 100 | > 100 | > 100 | > 100 | > 100 | > 100 | > 100 | > 100 | > 100 | > 100 | – | – | – | – | – | – | – |
| Oc1c(C(O)(c2ccccc2)c2ccc3ccccc3c2O)ccc2ccccc12 | 30.6 | 30.4 | 23.3 | 42.3 | – | 31.9 | 21.8 | 24 | 16.5 | 47.9 | 28.7 | 10.7 | – | – | – | – | – | – | – |
| O=C(N=Nc1ccc([N+](=O)[O-])cc1)NNc1ccc([N+](=O)[O-])cc1 | 26.6 | > 100 | 38.8 | > 100 | 47.1 | – | 30.3 | 22.9 | 33.1 | – | > 100 | 72.6 | – | – | – | – | – | – | – |
| CCN(CC)CCN1c2ccccc2Sc2ccc3ccccc3c21 | 24.7 | 27.8 | 29.2 | 29.9 | 15 | 15.9 | 22.9 | 23.6 | 27.9 | 26.4 | 29.6 | 20.9 | – | – | – | – | – | – | – |
| CC(C)(C)OC(=O)N1C(C2=COc3ccccc3O2)=COc2ccccc21 | 40.2 | > 100 | 75.3 | 71.4 | – | 38.2 | 72.7 | 60.2 | 40.8 | 83.5 | > 100 | 53.3 | – | – | – | – | – | – | – |
| COc1ccc(C2CCc3nc4nc(N)nc(N)c4cc3C2)cc1 (stereo not drawn) | 77.1 | > 100 | 22 | 70.6 | – | > 100 | > 100 | 28.8 | > 100 | 89.6 | 31.8 | 67.3 | – | – | – | – | – | – | – |
| NC(=O)c1cnc2sc3ccccc3n2c1=O | – | > 100 | > 100 | > 100 | > 100 | > 100 | > 100 | > 100 | > 100 | > 100 | > 100 | > 100 | – | – | – | – | – | – | – |
| CCCS(=O)(=O)O | > 100 | > 100 | > 100 | > 100 | > 100 | > 100 | – | > 100 | > 100 | > 100 | > 100 | > 100 | – | – | – | – | – | – | – |
| Cc1nn2c(N)cc(=O)nc2nc1/C=C/c1ccc(N(C)C)cc1 | – | > 100 | > 100 | > 100 | 2.41 | > 100 | > 100 | > 100 | 7.62 | > 100 | > 100 | > 100 | – | – | – | – | – | – | – |
| O=C1C(NS(=O)(=O)c2ccccc2)=C(n2cnc3ccccc32)C(=O)c2ccccc21 | – | > 100 | > 100 | > 100 | > 100 | > 100 | > 100 | > 100 | 53.7 | > 100 | > 100 | > 100 | – | – | – | – | – | – | – |

— PubChem BioAssay (NCI)
